The source made the active and inactive calls.
What was measured:
[1] = tested on: Mus musculus; test: Antiinflammatory activity in mouse assessed as reduction of zymosan-induced neutrophil recruitment during peritonitis at 10 ng, iv administered 5 mins before zymosan challenge measured after 4 hrs by light microscopy/flow cytometry; format: functional, organism-based
[2] = tested on: Macrophage; test: Pro-resolving activity in human macrophages assessed as increase of phagocytosis of bisbenzimide-labeled apoptotic neutrophils at 100 nM to 10 pM preincubated for 15 mins measured after 60 mins; format: functional, cell-based
[3] = tested on: Macrophage; test: Pro-resolving activity in human macrophages assessed as increase of phagocytosis of fluorescence-labeled yeast cell wall particles at 100 nM to 10 pM preincubated for 15 mins measured after 60 mins; format: functional, cell-based
[4] = tested on: Mus musculus; test: Antiinflammatory activity in mouse assessed as reduction of zymosan-induced number of neutrophils recovered from peritoneal exudates at 10 ng, iv administered 5 mins before zymosan challenge measured after 4 hrs by light microscopy/flow cytometry; format: functional, organism-based

Measured: Activity

CC/C=C\C[C@H](O)\C=C/C=C/C=C/[C@H](O)C/C=C\CCCCCC(=O)O
active: [1] | [2] | [3] | [4]

CC/C=C\C[C@H](O)\C=C/C=C/C=C/[C@H](O)C/C=C\C/C=C\CCC(=O)O
active: [1] | [2] | [3] | [4]
